According to patent US20260306639A1, “DEGRADER FOR DECOMPOSING CMET PROTEIN, AND PHARMACEUTICAL COMPOSITION COMPRISING SAME” (INNOCURE THERAPEUTICS, INC., priority 2022, published 2026):
pIC50: −log10 of the molar value.

Columns and labels:
c-MET [1] = assay: c-MET protein degradation (Simple Western), SNU-638 cells; assay type: cell-based, human; conditions: SNU-638 gastric cancer cells, c-MET overexpressing; 24 hours
Protocol: (§1) In order to assess the resolution of the compound of the present invention for c-MET expressed in cells, cells were dispensed in a 12-well plate at a concentration of 2×10^5 cells/well, and then gastric cancer cell lines were treated with samples for 24 hours and lung cancer cell lines were treated for 48 hours. Cell lysates were collected using a scraper on ice, centrifuged at 4° C. 15,000 rpm for 30 min to obtain a protein-containing supernatant. Protein expression was then measured using the Simple Western Automated Western Blot System Abby instrument using 3 μg of protein for each sample. SDS and heat-induced denaturation proteins were separated by molecular weight, attached to capillary, reacted with anti-c-MET or anti-GAPDH antibodies, which are primary antibodies, and then reacted with HRP-conjugated secondary antibodies, and analyzed the protein expression signal with compass software. Protein expression was normalized based on the expression value of GAPDH, and protein development in each sample was measured as a percentage (%) based on 100% of samples treated with 0.1% DMSO carriers, and DC50 (concentration of a compound where 50% protein inhibition is achieved) was calculated from the change in protein expression amount due to compound treatment.

c-MET [2] = assay: c-MET protein degradation (Simple Western), EBC-1 cells; assay type: cell-based, human; conditions: EBC-1 lung cancer cells, c-MET overexpressing; 48 hours
Protocol: as §1

SNU-638 = assay: cell viability / antiproliferative activity (WST-8), SNU-638 cells; assay type: cell-based, human; conditions: Homo sapiens; SNU-638 gastric cancer cells; 72 hours
Protocol: (§2) c-MET overexpressing human gastric cancer cell lines [MKN45] and [SNU638] were cultured in RPMI medium with 10% fetal bovine serum, penicillin (100 U/ml), and streptomycin (100 mg/ml), and c-MET exon 14 skipping mutant human gastric cancer cell lines [Hs746T] were cultured in DMEM media. The c-MET overexpressing human lung cancer cell line EBC-1 was cultured in MEM media with the addition of 10% fetal bovine serum, penicillin (100 U/ml), and streptomycin (100 mg/ml). […] The compound synthesized in accordance with the present invention was prepared with a raw material solution of 10 mM dissolved in DMSO (dimethyl sulfoxide), and was sequentially diluted and processed.
(§3) In order to observe the inhibitory activity on cell growth, cells were dispensed in a 96-well plate at a concentration of 5,000 cells/well, and then treated with the compound prepared at various concentrations for 72 hours. The viability of the cells was calculated using GraphicPad Prism 8.0 software by adding 10 ml per well of WST-8 (water soluble tetrazolium salt) sample, which reacts with dehydrogenase present in the electron transport system of mitochondria to produce formazon, incubated for 2 hours, and measured absorbance at 450 nm.

c-MET [3] = assay: c-MET protein degradation (Simple Western), MKN-45 cells; assay type: cell-based, human; conditions: MKN-45 gastric cancer cells, c-MET overexpressing; 24 hours
In short: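 Cells at 2×10^5 cells/well exposed to compound for 24 h (gastric lines) or 48 h (lung lines). Lysates (3 μg protein) probed for c-MET by capillary Simple Western, normalized to GAPDH and expressed as % of 0.1% DMSO control. DC50 is the concentration giving 50% protein reduction.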

MKN-45 = assay: cell viability / antiproliferative activity (WST-8), MKN-45 cells; assay type: cell-based; conditions: Homo sapiens; MKN-45 gastric cancer cells; 72 hours
Protocol: as §2, §3

Compound | DC50 (c-MET [1]) [nM] | DC50 (c-MET [2]) [nM] | pIC50 (SNU-638) | DC50 (c-MET [3]) [nM] | pIC50 (MKN-45)
N#Cc1cccc(-c2ccc(=O)n(Cc3cccc(-c4ncc(-c5cccc(CN6CCC(CN7CCN(c8ccc(NC9CCC(=O)NC9=O)cc8F)CC7)CC6)c5)cn4)c3)n2)c1 (stereo not drawn) [ICT-0001450] | 100 to 1000 | < 100 |  |  | 
Cc1nn(C2CCC(=O)NC2=O)c(=O)c2cc(N3CCN(CC4CCN(CCN5CCC(COc6cnc(-c7cccc(Cn8nc(-c9cccc(C#N)c9)ccc8=O)c7)nc6)CC5)CC4)CC3)c(F)cc12 (stereo not drawn) [ICT-0001326] | > 1000 |  |  |  | 
Cc1nn(C2CCC(=O)NC2=O)c(=O)c2cc(N3CCN(CC4CCN(CCN5CCC(COc6cnc(-c7cccc(Cn8nc(-c9cccc(C#N)c9)ccc8=O)c7)nc6)CC5)CC4)CC3)ccc12 (stereo not drawn) [ICT-0001321] |  |  | > 7.00 |  | 
Cc1nn(C2CCC(=O)NC2=O)c(=O)c2cc(F)c(N3CCN(CC4CCN(CCN5CCC(COc6cnc(-c7cccc(Cn8nc(-c9cccc(C#N)c9)ccc8=O)c7)nc6)CC5)CC4)CC3)cc12 (stereo not drawn) [ICT-0001318] |  |  | > 7.00 |  | 
Cn1cc(-c2cnc3c(nnn3C[C@@H]3CN(c4ncc(-c5ccc(CN6CCN(CC(=O)N7CCN(c8ccc(NC9CCC(=O)NC9=O)cc8F)CC7)CC6)cc5)cn4)CCO3)n2)cn1 (stereo partly drawn) [ICT-0001439] | < 100 | < 100 |  |  | 
N#Cc1cccc(C2=NC(Cc3cccc(-c4ncc(OCC5CCN(CC(=O)N6CCN(CC7CCN(c8ccc9c(=O)n(C%10C=CC(=O)NC%10=O)ncc9c8)CC7)CC6)CC5)cn4)c3)C(=O)C=C2)c1 (stereo not drawn) [ICT-0000975] |  |  |  | 100 to 1000 | > 7.00
N#Cc1cccc(-c2ccc(=O)n(Cc3cccc(-c4ncc(OCC5CCN(CCN6CCN(c7ccc(NC8CCC(=O)NC8=O)cc7F)CC6)CC5)cn4)c3)n2)c1 (stereo not drawn) [ICT-0001433, 3-(1-(3-(5-((1-(1-(2-(4-((2,6-dioxopiperidine-3-yl)amino)-2-fluorophenyl)piperazine-1-il)ethyl)piperidine-4-il)methoxy)pyrimidine-2-yl)benzyl)6-oxo-1,6-dihydropyridazine-3-yl)benzonitrile] | < 100 | < 100 |  |  | 
N#Cc1cccc(-c2ccc(=O)n(Cc3cccc(-c4ncc(OCC5CCN(c6ccc(NC7CCC(=O)NC7=O)cc6F)CC5)cn4)c3)n2)c1 (stereo not drawn) [ICT-0001383] | < 100 | < 100 |  |  | 
Cc1nn(C2CCC(=O)NC2=O)c(=O)c2cc(N3CCN(CCN4CCC(COc5cnc(-c6cccc(Cn7nc(-c8cccc(C#N)c8)ccc7=O)c6)nc5)CC4)CC3)ccc12 (stereo not drawn) [ICT-0001278, 3-(1-{[3-(5-{[1-(2-{4-[3-(2,6-dioxopiperidin-3-yl)-1-methyl-4-oxo-3,4-dihydropthalazine-6-yl]piperazine-1-yl}ethyl)piperidine-4-day]methoxy}pyrimidine-2-yl)phenyl]methyl}6-oxo-1,6-dihydropyridazine-3-yl)benzonitrile] |  | > 1000 |  | 100 to 1000 | 
Cc1nn(C2CCC(=O)NC2=O)c(=O)c2ccc(N3CCN(C4CN(CCN5CCC(COc6cnc(-c7cccc(Cn8nc(-c9cccc(C#N)c9)ccc8=O)c7)nc6)CC5)C4)CC3)cc12 (stereo not drawn) [ICT-0001325] | > 1000 |  |  |  | 
N#Cc1cccc(-c2ccc(=O)n(Cc3cccc(-c4ncc(-c5cccc(CN6CCN(c7ccc(NC8CCC(=O)NC8=O)cc7F)CC6)c5)cn4)c3)n2)c1 (stereo not drawn) [ICT-0001434] | > 1000 | < 100 |  |  | 
Cc1nn(C2CCC(=O)NC2=O)c(=O)c2ccc(NCCOCCOCCOCC(=O)N3CCC(COc4cnc(-c5cccc(Cn6nc(-c7cccc(C#N)c7)ccc6=O)c5)nc4)CC3)cc12 (stereo not drawn) [ICT-0001088] |  |  |  | < 100 | 6.00 to 7.00
Cc1nn(C2CCC(=O)NC2=O)c(=O)c2ccc(N3CCN(C(=O)C4CN(CC(=O)N5CCC(COc6cnc(-c7cccc(Cn8nc(-c9cccc(C#N)c9)ccc8=O)c7)nc6)CC5)C4)CC3)cc12 (stereo not drawn) [ICT-0001257] |  | 100 to 1000 |  | < 100 | 
N#Cc1cccc(-c2ccc(=O)n(Cc3cccc(-c4ncc(-c5cccc(CN6CCN(c7ccc(C8CCC(=O)NC8=O)cn7)CC6)c5)cn4)c3)n2)c1 (stereo not drawn) [ICT-0001449] | > 1000 | < 100 |  |  | 
Cc1nn(C2CCC(=O)NC2=O)c(=O)c2ccc(N3CCN(CC4CCN(CC(=O)N5CCC(COc6cnc(-c7cccc(Cn8nc(-c9cccc(C#N)c9)ccc8=O)c7)nc6)CC5)CC4)CC3)cc12 (stereo not drawn) [ICT-0001272] |  |  |  | < 100 | > 7.00
Cc1nn(C2CCC(=O)NC2=O)c(=O)c2ccc(NCCOCCOCCOCCOCC(=O)N3CCC(COc4cnc(-c5cccc(Cn6nc(-c7cccc(C#N)c7)ccc6=O)c5)nc4)CC3)cc12 (stereo not drawn) [ICT-0001089, 3-(1-(3-(5-((1-(14-((2-(2,6-dioxopiperidine-3-yl)-4-methyl-1-oxo-1,2-dihydrophthalazine-6-yl)amino)3,6,9,12-tetratetradecanoyl)piperidine-4-yl)methoxy)pyrimidin-2-yl)benzyl)6-oxo-1,6-dihydropyridazine-3-yl)benzonitrile] |  |  |  | 100 to 1000 | 6.00 to 7.00
Cn1cc(-c2cnc3c(nnn3CC3CN(c4ncc(-c5ccc(CN6CCC(CN7CCN(c8ccc9c(=O)n(C%10CCC(=O)NC%10=O)ncc9c8)CC7)CC6)cc5)cn4)CCO3)n2)cn1 [ICT-0000978, 3-(6-(4-((1-(4-(2-((S)-2-((5-(1-methyl-1H-pyrazole-4-yl)-1H-[1,2,3]triazolo[4,5-b]pyrazine-1-yl)methyl)morpholino)pyrimidine-5-il)benzyl)piperidine-4-il)methyl)piperazine-1-yl)1-oxopthalazine-2(1H)-yl)piperidine-2,6-dione] |  |  |  | 100 to 1000 | > 7.00
Cc1nn(C2CCC(=O)NC2=O)c(=O)c2cc(N3CCN(CC4CCN(C(=O)CN5CCC(COc6cnc(-c7cccc(Cn8nc(-c9cccc(C#N)c9)ccc8=O)c7)nc6)CC5)CC4)CC3)c(F)cc12 (stereo not drawn) [ICT-0001231, 3-(1-(3-(5-((1-(2-(4-(4-(4-(3-(2,6-dioxopiperidine-3-yl)-7-fluoro-1-methyl-4-oxo-3,4-dihydrophthalazine-6-yl)piperazine-1-il)methyl)piperidine-1-il)-2-oxoethyl)piperidine-4-yl)methoxy)pyrimidine-2-yl)benzyl)6-oxo-1,6-dihydropyridazine-3-yl)benzonitrile] |  |  |  |  | > 7.00
N#Cc1cccc(-c2ccc(=O)n(Cc3cccc(-c4ncc(OCC5CCN(CC(=O)N6CC(N7CCN(c8ccc9c(=O)n(C%10CCC(=O)NC%10=O)ncc9c8)CC7)C6)CC5)cn4)c3)n2)c1 (stereo not drawn) [ICT-0001232] | < 100 | < 100 |  | < 100 | 
Cn1cc(-c2cnc3c(nnn3C[C@@H]3CN(c4ncc(-c5ccc(CN6CCN(C(=O)COCCOCCNc7ccc8c(=O)n(C9CCC(=O)NC9=O)ncc8c7)CC6)cc5)cn4)CCO3)n2)cn1 (stereo partly drawn) [ICT-0000935] |  |  |  | 100 to 1000 | 6.00 to 7.00
N#Cc1cccc(-c2ccc(=O)n(Cc3cccc(-c4ncc(OCC5CCN(C(=O)CN6CCN(c7ccc(NC8CCC(=O)NC8=O)cc7F)CC6)CC5)cn4)c3)n2)c1 (stereo not drawn) [ICT-0001494] | < 100 | < 100 |  |  | 
Cc1nn(C2CCC(=O)NC2=O)c(=O)c2cc(N3CCN(C(=O)CN4CCC(COc5cnc(-c6cccc(Cn7nc(-c8cccc(C#N)c8)ccc7=O)c6)nc5)CC4)CC3)ccc12 (stereo not drawn) [ICT-0001214, 3-(1-(3-(5-((1-(2-(4-(3-(2,6-dioxopiperidin-3-yl)-1-methyl-4-oxo-3,4-dihydropetalazine-6-yl)piperazine-1-il)acetyl)piperidine-4-il)methoxy)pyrimidine-2-yl)benzyl)6-oxo-1,6-dihydropyridazine-3-yl)benzonitrile] |  |  |  | < 100 | > 7.00
Cc1nn(C2CCC(=O)NC2=O)c(=O)c2c(NCC(=O)N3CCC(CN4CCC(COc5cnc(-c6cccc(Cn7nc(-c8cccc(C#N)c8)ccc7=O)c6)nc5)CC4)CC3)cccc12 (stereo not drawn) [ICT-0000980] | > 1000 |  |  | < 100 | 
N#Cc1cccc(-c2ccc(=O)n(Cc3cccc(-c4ncc(OCC5CCN(CCN6CCN(c7ccc8c(=O)n(C9CCC(=O)NC9=O)ncc8c7)CC6)CC5)cn4)c3)n2)c1 (stereo not drawn) [ICT-0001276, 3-(1-{[3-(5-{[1-(2-{4-[2-(2,6-dioxopiperidin-3-yl)-1-oxo-1,2-dihydropetalazine-6-yl]piperazine-1-il}ethyl)piperidine-4-il]methoxy}pyrimidine-2-yl)phenyl]methyl}-6-oxo-1,6-dihydropyridazine-3-yl)benzonitrile] |  | > 1000 |  | < 100 | 
Cc1nn(C2CCC(=O)NC2=O)c(=O)c2ccc(N3CCN(C(=O)C4CCN(CC(=O)N5CCC(COc6cnc(-c7cccc(Cn8nc(-c9cccc(C#N)c9)ccc8=O)c7)nc6)CC5)CC4)CC3)cc12 (stereo not drawn) [ICT-0001218] | < 100 |  |  | < 100 | 
Cc1nn(C2CCC(=O)NC2=O)c(=O)c2cc(N3CCN(CCCC(=O)N4CCC(COc5cnc(-c6cccc(Cn7nc(-c8cccc(C#N)c8)ccc7=O)c6)nc5)CC4)CC3)ccc12 (stereo not drawn) [ICT-0001216, 3-(1-(3-(5-((1-(4-(4-(3-(2,6-dioxopiperidin-3-yl)-1-methyl-4-oxo-3,4-dihydroptalazine-6-yl)piperazine-1-il)butanoyl)piperidine-4-il)methoxy)pyrimidine-2-yl)benzyl)6-oxo-1,6-dihydropyridazine-3-yl)benzonitrile] |  |  |  | < 100 | > 7.00
